Laboratory results as given in patent US20050025841A1, “Therapeutic methods using herbal compositions” (priority 2001, published 2005).

Tests used:
[1] = tested on: polychromatic erythrocytes in the mouse bone marrow; conditions: CTX 30 mg/kg alone; 8000 cells
breast cancer = conditions: women at high risk of breast cancer, versus placebo; cited from earlier work

Structure (SMILES)	Micronucleus Rate [1] [%0]	decrease in invasive cancer (breast cancer) [%]	decrease in non-invasive breast cancer (breast cancer) [%]
O=P1(N(CCCl)CCCl)NCCCO1 (stereo not drawn) [CTX, cyclophosphamide]	17.3 ± 1.1	–	–
CC/C(=C(\c1ccccc1)c1ccc(OCCN(C)C)cc1)c1ccccc1 [Tamoxifen]	–	49	50
